Source: US20160304957A1, “TREATMENT AND MODULATION OF GENE EXPRESSION AND SKIN AGING” (DSM NUTRITIONAL PRODUCTS LTD., priority 2006, published 2016)

What was measured:
[1] = test system: HaCaT cells; experiment: Depletion of cellular β-carotene content by UVA irradiation, HPLC; type: in vitro ADME, human; settings: 270 kJ/m^2 UVA
Protocol: On day 3 of the experiment, cells were washed six times with Ca/Mg-free PBS containing 2% BSA, and then irradiated with light with a Hönle sun lamp Sol 500 (Dr. Hönle, Plannegg, Germany) at a dose of 270 kJ/m^2 in Ca/Mg-free PBS (2 hour exposure time at […]). The experimental schedule was chosen because the cells had optimal UVA sensitivity after 48 hours in culture. […] Confluent cultures were much less sensitive to irradiation.

[2] = test system: non-melanoma skin cancer; settings: clinical intervention trials; cited from earlier work

CC1=C(/C=C/C(C)=C/C=C/C(C)=C/C=C/C=C(C)/C=C/C=C(C)/C=C/C2=C(C)CCCC2(C)C)C(C)(C)CCC1 [β-carotene, All-E-β-carotene]
effect of UVA on cellular β-carotene content ([1]; 0.5 μM β-carotene 2 days): did not reduce | cellular β-carotene stores remaining after UVA irradiation ([1]; 1.5 or 3 μM β-carotene 2 days): about 13% | prevention of non-melanoma skin cancer [2]: no significant prevention
